Test results as given in patent US11542492B2 (Celgene CAR LLC, priority 2009, dated 2023).
One block for each molecule: values may come before it.

How the values were obtained:
[1] = target: T1, PDPK1 (Homo sapiens, UniProt O15530); assay: PDK1-OMNIA kinase assay (ST28-Sox peptide); type: biochemical; set-up: purchased Invitrogen, BPS or SignalChem P3001 (Invitrogen), 40080 (BPS), P14-10H (SignalChem); details: PDPK1 enzyme pre-incubated 30 min at 25° C. with compound; [ATP]=5 μM; ST28-Sox peptide substrate; read-out: Inhibition/Modification Designation (IC50, PDK1-OMNIA)
T1 sequence (O15530 1-556): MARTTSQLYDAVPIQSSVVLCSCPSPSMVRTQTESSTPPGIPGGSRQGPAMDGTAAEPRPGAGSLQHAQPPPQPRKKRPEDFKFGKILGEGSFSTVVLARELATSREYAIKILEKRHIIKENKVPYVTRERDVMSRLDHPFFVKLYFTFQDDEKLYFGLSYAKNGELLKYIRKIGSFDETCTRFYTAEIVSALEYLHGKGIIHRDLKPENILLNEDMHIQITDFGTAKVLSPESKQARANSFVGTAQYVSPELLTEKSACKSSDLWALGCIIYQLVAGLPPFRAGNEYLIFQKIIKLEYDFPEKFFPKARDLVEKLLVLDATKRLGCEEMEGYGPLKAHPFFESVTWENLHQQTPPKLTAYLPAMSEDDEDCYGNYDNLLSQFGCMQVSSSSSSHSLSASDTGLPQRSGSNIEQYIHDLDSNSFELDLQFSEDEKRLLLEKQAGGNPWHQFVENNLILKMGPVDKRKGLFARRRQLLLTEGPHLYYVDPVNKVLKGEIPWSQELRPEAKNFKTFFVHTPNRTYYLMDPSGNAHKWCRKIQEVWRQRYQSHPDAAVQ
Protocol: Briefly, a 10× stock of PDPK1 enzyme from Invitrogen (P3001) or BPS (40080) or SignalChem (P14-10H), 1.13×ATP (AS001A) and ST28-Sox peptide substrate (KNZ1281C) were prepared in 1× kinase reaction buffer consisting of 20 mM Tris, pH 7.5, 5 mM MgCl2, 1 mM EGTA, 5 mM β-glycerophosphate, 5% glycerol (10× stock, KB002A) and 0.2 mM DTT (DS001A). 5 μL of enzyme were pre-incubated in a Corning (#3574) 384-well, white, non-binding surface microtiter plate (Corning, N.Y.) for 30 min at 25° C. with a 0.5 μL volume of 50% DMSO and serially diluted compounds prepared in 50% DMSO. Kinase reactions were started with the addition of 45 […] of the ST28-Sox peptide substrate and monitored every 71 seconds for 30-60 minutes at λex360/λem485 in a Synergy4 plate reader from BioTek (Winooski, Vt.). At the conclusion of each assay, progress curves from each well were examined for linear reaction kinetics and fit statistics (R^2, 95% confidence interval, absolute sum of squares). Post-lag velocity (+10 minutes to 20+ minutes) from each reaction was estimated from the slope of a plot of relative fluorescence units vs time (minutes) and normalized to the no enzyme and no inhibitor control groups for % Inhibition. The resulting inhibition values were then plotted against inhibitor concentration to estimate IC50 from log [Inhibitor] vs Response, Variable Slope model in GraphPad Prism from GraphPad Software (San Diego, Calif.).
[Reagent] used in provisional protocol(s): Invitrogen—[PDPK1]=5-10 nM, [ATP]=5 μM and [ST28-Sox]=5 μM or 10 μM (ATP KMapp=4-6 μM); BPS—[PDPK1]=10-15 nM, [ATP]=5 μM and [ST28-Sox]=10 μM (ATP KMapp=3-5 μM); SignalChem—[PDPK1]=5-10 nM, [ATP]=5 μM and [ST28-Sox]=5 μM or 10 μM (ATP KMapp ND)

[2] = target: T1, PDPK1; assay: MALDI MS of intact PDPK1 incubated with compound; type: binding; set-up: purchased Millipore 14-452; details: for Number of Modifications on Whole Protein: PDPK1 whole protein, MS
Protocol: (§1) Intact PDPK1 was incubated for 3 hr at a 10-fold excess of compound XI-27 to protein. 3 μL aliquots of the samples were diluted with 10 μL of 0.1% TFA prior to micro C4 Ziptipping directly onto the MALDI target plate using sinapinic acid as the desorption matrix (10 mg/mL in 0.1% TFA:Acetonitrile 50:50).
as §1, with “XI-21” for “XI-27”
For example, Table 7 lists non-limiting examples of compounds that modify PDPK1 whole protein, the number of modifications per protein and the lysines modified within the protein. […] Also, the lysine modified in PDPK-1 by XI-27, XI-26, XI-22, and XI-21 are not the same for each compound. Without wishing to be bound to any particular theory, the position of the warhead, as presented by the scaffold and tether to the lysines in the binding site, effects different results on the modification of the different lysines in the binding site of PDPK-1.

[3] = target: T2, p110α/p85α (PI3Kα) (Homo sapiens, UniProt P42336); assay: HTRF assay, p110α/p85α; type: biochemical; details: read-out: PI3Kα-HTRF-IC50 nM Inhibition Designation
T2 construct: purchased BPS Bioscience or Millipore 40620 (BPS Bioscience) or 14-602 (Millipore)
Protocol: HTRF Assay Protocol for Potency Assessment Against the Active Form of p110α/p85α:
The mechanics of the assay platform are best described by the vendor (Millipore, Billerica, Mass.) on their website at the following URL: http://www.millipore.com/coa/tech1/74jt4z.
Briefly, Stop solution (Stop A, #33-007 and Stop B, #33-009; 3:1 ratio) and Detection Mix (DMC, #33-015 with DMA, #33-011 and DMB, #33-013; 18:1:1 ratio) were prepared as recommended by the manufacturer ˜2 hrs prior to use. […] Lipid kinase reactions were started with the addition of 5 μL of ATP solution, mixed for 15 sec on a rotary plate shaker and incubated for 15-30 minutes at 25° C. Next, reactions were stopped with a 5 μL addition of Stop solution followed by a 5 μL volume of Detection Mix. […] At the conclusion of each assay, the HTRF ratio from fluorescence emission values for each well was calculated and % Inhibition determined from averaged controls wells. % Inhibition values for each compound re then plotted against inhibitor concentration to estimate IC50 from log [Inhibitor] vs Response, Variable Slope model in GraphPad Prism from GraphPad Software (San Diego, Calif.).

[4] = target: T3, p120γ (PI3Kγ) (Homo sapiens, UniProt P48736); assay: HTRF assay, p120γ; type: biochemical; details: PI3Kγ; read-out: PI3Kγ HTRF IC50 Inhibition Designation
T3 construct: purchased BPS Bioscience 40625
Summary of the method: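 End-point competition-binding HTRF with 1-4 nM enzyme and 10 μM di-C8-PIP2, pre-incubated with compound 30 min at 25° C, then 50 μM ATP for 15-30 min at 25° C. HTRF ratio (665/620 nm) gave % inhibition; IC50 from variable-slope log-dose fit.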

[5] = system: HCT116; assay: HCT116-WB assay; type: cell-based; details: Homo sapiens, HCT-116; read-out: HCT116-WB Inhibition Designation
[6] = target: T4, recombinant human ML-IAPβ (Homo sapiens, UniProt Q96CA5); assay: Fluorescence polarization competition binding assay, ML-IAPβ; details: ML-IAP, 2 h
T4 construct: purchased R&D Systems 818-IA
T4 sequence (Q96CA5 1-280 isoform Q96CA5-2): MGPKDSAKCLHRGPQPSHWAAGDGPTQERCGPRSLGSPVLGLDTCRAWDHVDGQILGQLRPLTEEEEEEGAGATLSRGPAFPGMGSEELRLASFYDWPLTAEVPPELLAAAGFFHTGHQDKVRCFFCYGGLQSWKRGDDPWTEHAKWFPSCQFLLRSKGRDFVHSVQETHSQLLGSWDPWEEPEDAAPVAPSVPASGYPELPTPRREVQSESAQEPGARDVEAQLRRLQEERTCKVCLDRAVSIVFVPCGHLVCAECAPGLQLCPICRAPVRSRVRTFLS
Protocol: (§2) Homogeneous, Fluorescence Polarization, Competition Binding Assay Protocol for Affinity Assessment of Compound Binding to XIAP, cIAP-1 and ML-IAPβ BIR3 Domains
(§3) 1× stocks of recombinant human XIAP; BIR3 domain (895-XB), recombinant human cIAP-1 (818-IA) or recombinant human ML-IAPβ (818-IA) from R&D Systems and Fluorescence Polarization (FP) assay tracer (Atto-647 tagged IAP inhibitor probe compound) were prepared in assay buffer consisting of 25 mM Tris-HCL, pH 7.5 (Sigma), 10 mM […] (Sigma), 1 mM DTT (Fluka) and 0.005% TritonX-100 (Pierce). While IAP protein and tracer equilibrated at ambient temp in the dark (30-60 min), 100× stocks of test compound were prepared in 50% DMSO:H2O, serially diluted and spotted (0.5 µL/well) in duplicate wells of a 384-well, flat bottom, polypropylene, black assay plate (Greiner #781209). […] Competition binding between test compounds and assay tracer was initiated by the addition of 50 µL/well of pre-equilibrated IAP protein and assay tracer. Displacement of the assay tracer was measured in a Synergy plate reader from BioTek (Winooski, Vt.) at λex620/λem680 through a 660 nm half-sized dicroich mirror and S/P polarizing filters every 30 min for 3 hr. (See Huang, X., Journal of Biomolecular Screening 8, 2003). The resulting compound dose response data were fit to a one-site binding Ki model in GraphPad Prism from GraphPad Software (San Diego, Calif.).

[7] = target: T5, recombinant human cIAP-1 (Homo sapiens, UniProt Q13490); assay: Fluorescence polarization competition binding assay, cIAP-1; details: c-IAP-1, 3 h
T5 construct: purchased R&D Systems 818-IA
Protocol: as §2, §3

T5 sequence (Q13490 whole entry): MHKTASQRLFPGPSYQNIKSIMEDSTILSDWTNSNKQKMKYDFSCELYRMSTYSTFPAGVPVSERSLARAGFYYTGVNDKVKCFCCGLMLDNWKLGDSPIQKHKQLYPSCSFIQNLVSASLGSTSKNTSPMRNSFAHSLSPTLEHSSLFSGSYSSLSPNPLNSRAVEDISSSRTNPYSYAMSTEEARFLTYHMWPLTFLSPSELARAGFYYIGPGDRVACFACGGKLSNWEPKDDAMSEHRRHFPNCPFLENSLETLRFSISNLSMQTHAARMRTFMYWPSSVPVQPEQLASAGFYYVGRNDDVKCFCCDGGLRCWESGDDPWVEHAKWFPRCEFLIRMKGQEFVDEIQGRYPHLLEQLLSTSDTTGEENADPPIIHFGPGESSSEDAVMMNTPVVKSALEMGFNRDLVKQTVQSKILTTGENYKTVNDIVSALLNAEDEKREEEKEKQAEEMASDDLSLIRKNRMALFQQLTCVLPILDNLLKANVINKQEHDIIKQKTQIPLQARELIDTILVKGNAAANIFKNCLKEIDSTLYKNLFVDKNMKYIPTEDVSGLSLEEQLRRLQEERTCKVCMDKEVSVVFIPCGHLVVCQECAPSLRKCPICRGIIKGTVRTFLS
T3 sequence (P48736 whole entry): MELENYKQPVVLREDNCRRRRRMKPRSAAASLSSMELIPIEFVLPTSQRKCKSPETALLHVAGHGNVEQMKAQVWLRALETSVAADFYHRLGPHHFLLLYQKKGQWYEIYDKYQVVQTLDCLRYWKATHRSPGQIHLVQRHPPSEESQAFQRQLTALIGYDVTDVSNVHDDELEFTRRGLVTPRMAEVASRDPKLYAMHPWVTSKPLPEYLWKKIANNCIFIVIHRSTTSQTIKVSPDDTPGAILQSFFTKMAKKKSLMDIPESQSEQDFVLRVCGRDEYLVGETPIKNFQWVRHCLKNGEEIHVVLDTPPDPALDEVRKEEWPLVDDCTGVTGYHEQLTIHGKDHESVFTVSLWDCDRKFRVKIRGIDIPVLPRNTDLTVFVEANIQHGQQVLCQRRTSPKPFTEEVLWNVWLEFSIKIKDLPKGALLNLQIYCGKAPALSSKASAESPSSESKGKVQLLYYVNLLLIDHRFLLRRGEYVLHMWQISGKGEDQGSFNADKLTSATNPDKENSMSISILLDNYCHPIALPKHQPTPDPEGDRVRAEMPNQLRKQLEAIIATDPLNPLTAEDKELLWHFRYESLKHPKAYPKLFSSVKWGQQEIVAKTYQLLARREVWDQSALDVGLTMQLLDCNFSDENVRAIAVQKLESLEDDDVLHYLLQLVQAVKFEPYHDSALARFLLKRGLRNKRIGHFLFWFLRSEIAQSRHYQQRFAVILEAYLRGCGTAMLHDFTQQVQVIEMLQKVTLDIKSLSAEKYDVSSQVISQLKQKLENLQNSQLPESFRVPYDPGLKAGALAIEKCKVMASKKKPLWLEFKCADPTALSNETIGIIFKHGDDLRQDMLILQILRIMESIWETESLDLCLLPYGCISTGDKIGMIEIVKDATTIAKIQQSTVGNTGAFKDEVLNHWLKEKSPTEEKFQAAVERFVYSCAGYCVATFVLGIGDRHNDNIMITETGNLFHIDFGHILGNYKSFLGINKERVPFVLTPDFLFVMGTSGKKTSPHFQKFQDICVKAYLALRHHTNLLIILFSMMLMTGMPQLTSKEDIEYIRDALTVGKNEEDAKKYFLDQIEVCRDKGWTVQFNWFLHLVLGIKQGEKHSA
T2 sequence (P42336 whole entry): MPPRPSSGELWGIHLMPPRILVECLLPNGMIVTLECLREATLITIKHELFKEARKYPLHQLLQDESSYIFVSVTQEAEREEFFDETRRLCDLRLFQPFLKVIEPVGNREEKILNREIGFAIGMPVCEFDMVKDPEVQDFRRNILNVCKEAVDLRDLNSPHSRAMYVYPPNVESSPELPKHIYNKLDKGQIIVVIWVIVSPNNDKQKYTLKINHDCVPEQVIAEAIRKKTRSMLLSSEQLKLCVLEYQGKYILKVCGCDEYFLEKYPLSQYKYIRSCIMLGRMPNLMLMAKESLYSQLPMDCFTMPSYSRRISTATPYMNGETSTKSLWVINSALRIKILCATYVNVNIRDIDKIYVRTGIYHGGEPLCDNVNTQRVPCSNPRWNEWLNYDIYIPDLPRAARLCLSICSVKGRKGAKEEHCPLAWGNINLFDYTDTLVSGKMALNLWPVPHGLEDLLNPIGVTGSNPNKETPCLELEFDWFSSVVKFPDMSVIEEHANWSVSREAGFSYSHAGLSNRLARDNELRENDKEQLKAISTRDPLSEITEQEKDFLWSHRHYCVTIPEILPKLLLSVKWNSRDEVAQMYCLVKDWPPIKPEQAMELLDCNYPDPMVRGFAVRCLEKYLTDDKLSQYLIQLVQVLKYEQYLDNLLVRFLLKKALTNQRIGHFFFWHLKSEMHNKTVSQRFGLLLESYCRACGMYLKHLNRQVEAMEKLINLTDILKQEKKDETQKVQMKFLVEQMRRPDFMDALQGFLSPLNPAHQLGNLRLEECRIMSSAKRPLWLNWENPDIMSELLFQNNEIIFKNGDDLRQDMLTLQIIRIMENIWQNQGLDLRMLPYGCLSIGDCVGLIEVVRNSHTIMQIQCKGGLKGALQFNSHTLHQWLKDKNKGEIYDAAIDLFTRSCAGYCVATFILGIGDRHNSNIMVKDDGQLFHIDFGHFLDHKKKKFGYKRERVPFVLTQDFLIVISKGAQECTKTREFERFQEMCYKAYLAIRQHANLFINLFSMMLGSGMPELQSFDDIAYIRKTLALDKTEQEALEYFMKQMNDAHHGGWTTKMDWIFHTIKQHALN
T2 sequence (P27986 whole entry partner): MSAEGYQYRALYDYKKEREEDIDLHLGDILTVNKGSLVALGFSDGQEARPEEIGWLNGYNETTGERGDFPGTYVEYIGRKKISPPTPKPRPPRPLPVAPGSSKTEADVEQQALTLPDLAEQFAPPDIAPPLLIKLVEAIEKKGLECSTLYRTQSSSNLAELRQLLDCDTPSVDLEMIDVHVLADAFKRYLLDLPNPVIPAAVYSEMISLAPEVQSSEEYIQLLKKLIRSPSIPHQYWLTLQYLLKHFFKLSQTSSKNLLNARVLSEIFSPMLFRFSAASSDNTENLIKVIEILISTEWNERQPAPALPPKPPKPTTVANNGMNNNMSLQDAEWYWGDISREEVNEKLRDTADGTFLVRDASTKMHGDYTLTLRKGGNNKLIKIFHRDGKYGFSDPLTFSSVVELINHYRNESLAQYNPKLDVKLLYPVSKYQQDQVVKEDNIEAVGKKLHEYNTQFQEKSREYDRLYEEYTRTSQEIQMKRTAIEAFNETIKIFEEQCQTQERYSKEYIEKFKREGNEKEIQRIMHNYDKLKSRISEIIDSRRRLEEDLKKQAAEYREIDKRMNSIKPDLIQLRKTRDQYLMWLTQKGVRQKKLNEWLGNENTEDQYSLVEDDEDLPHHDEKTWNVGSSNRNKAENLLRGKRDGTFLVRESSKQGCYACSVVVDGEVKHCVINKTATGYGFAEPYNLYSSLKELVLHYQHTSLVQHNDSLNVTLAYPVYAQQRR

IC50 [3]: 10 to 100 nM
IC50 [4]: 100 to 1000 nM
IC50 [5]: 10 to 100 nM
SMILES: CN(Cc1cc2nc(-c3cccc(O)c3)nc(N3CCOCC3)c2s1)C(=O)[C@@H]1CCC(=O)O1 [XXII-6]

IC50 [3]: 10 to 100 nM
IC50 [4]: 100 to 1000 nM
IC50 [5]: 10 to 100 nM
SMILES: CC(C)Oc1c(N(C)Cc2cc3nc(-c4cccc(O)c4)nc(N4CCOCC4)c3s2)c(=O)c1=O [XXII-11]

The next lines start with the molecule.

SMILES: CC(C)(C(N)=O)C(=O)NCCCNc1nc(Nc2cccc(NC(=O)C3CCC(=O)S3)c2)ncc1Br (stereo not drawn) [XI-21]
IC50 [1]: < 10 nM
mass shift of PDPK1 as percent ([2]; 3 hr, 10-fold excess): 175%
modification of PDPK1 ([2]; 3 hr, 10-fold excess): complete multiple modification
mass shift of PDPK1 ([2]; 3 hr, 10-fold excess of compound to protein): 1,009 Da
Number of Modifications on Whole Protein [2]: 2

SMILES: C=CS(=O)(=O)Nc1cccc(CNC(=O)[C@@H]2CC[C@@H]3CCCC[C@H](NC(=O)[C@H](C)NC)C(=O)N32)c1 [VII-23]
Ki [6]: 10 to 100 nM
Ki [7]: < 10 nM

SMILES: CN[C@@H](C)C(=O)N[C@H]1CCCC[C@H]2CC[C@@H](C(=O)NCc3cccc(COC(=O)CC(C)=O)c3)N2C1=O [VII-29]
Ki [6]: 10 to 100 nM
Ki [7]: 1000 to 10000 nM

SMILES: CN[C@@H](C)C(=O)N[C@H]1CCCC[C@H]2CC[C@@H](C(=O)NCc3cccc(C(=O)N4CC5CCC4C(=O)O5)c3)N2C1=O (stereo partly drawn) [VII-43]
Ki [6]: > 10000 nM
Ki [7]: 1000 to 10000 nM

SMILES: CC(C)(C(N)=O)C(=O)NCCCNc1nc(Nc2cccc(NC(=O)CNC(=O)C3CCC(=O)S3)c2)ncc1Br (stereo not drawn) [XI-22]
IC50 [1]: < 10 nM
Number of Modifications on Whole Protein [2]: 2

SMILES: CN[C@@H](C)C(=O)N[C@H]1CCCC[C@H]2CC[C@@H](C(=O)N[C@@H]3CCCc4c(NC(=O)C5CCC(=O)O5)cccc43)N2C1=O (stereo partly drawn) [VII-30]
Ki [6]: 10 to 100 nM
Ki [7]: 10 to 100 nM
